Twelve compounds from PubChem BioAssay AID651581 (Sanford-Burnham Center for Chemical Genomics, 2012) can be followed below.

Calls of active or inactive are those of the source. The rule behind the calls is not given here.

In assay [1] the target is Endothelial PAS domain-containing protein 1 (Homo sapiens) (UniProt Q99814). The experiment in a line: potency against HIF reporters across cell lines – luminescence, panel, selectivity assay for HIF-2a inhibitor project, dose response (AID 651581). The settings on record: human cell HIF reporter.
Assay [2] concerns the target Hypoxia-inducible factor 1-alpha (Homo sapiens) (UniProt Q16665). The description is as above. To be noted: human cell HIF reporter, HIF-1a.

Sequence of Hypoxia-inducible factor 1-alpha (Homo sapiens) (Q16665 whole entry, looked up): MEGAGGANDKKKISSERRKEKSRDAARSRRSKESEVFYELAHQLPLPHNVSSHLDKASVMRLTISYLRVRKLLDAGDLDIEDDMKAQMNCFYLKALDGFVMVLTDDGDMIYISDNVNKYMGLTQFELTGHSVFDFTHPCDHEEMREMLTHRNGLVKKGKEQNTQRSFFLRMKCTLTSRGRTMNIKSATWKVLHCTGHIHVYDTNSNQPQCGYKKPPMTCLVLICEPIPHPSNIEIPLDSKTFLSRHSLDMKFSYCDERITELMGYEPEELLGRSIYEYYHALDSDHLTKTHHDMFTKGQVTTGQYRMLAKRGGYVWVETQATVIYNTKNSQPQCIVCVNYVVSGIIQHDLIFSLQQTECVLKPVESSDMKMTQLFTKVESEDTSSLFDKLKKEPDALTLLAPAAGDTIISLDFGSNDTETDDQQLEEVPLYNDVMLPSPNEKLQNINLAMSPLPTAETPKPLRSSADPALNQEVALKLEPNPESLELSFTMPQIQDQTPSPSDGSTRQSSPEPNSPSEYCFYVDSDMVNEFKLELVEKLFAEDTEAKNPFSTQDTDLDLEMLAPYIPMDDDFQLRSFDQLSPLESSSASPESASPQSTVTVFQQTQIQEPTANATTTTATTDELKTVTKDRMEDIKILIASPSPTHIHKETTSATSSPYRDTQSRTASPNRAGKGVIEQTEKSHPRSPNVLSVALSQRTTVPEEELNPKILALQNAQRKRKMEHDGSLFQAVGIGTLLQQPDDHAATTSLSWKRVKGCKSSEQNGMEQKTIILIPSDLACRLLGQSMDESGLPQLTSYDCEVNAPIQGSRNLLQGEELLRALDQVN

For `CCOC(=O)Cc1csc(NC(=S)NC(=O)c2ccc([N+](=O)[O-])cc2)n1`, the IC50 (usually the midpoint of a concentration-inhibition curve) in assay [1] (HIF-2a PANC, mean of runs) is “inactive”. Besides, the IC50 in assay [1] (HIF-2a PANC, run 1) is 35.8 µM; in assay [1] (HIF-2a PANC, run 2), 34.5 µM; in assay [1] (HIF-2a, mean of runs) it was 5.93 µM; in assay [1] (HIF-2a, run 1), 5.83 µM; in assay [1] (HIF-2a, run 2) it was 6.03 µM; in assay [2] (mean of runs) it was 51 µM. The IC50 in assay [2] (run 1) worked out at 55.3 µM; in assay [2] (run 2), 46.8 µM.
In the case of `COc1cccc(/C=N/Nc2ncccc2[N+](=O)[O-])c1OC`, the IC50 in assay [1] (HIF-2a PANC, mean of runs) was 21.8 µM; in assay [1] (HIF-2a PANC, run 1) it was 22 µM; in assay [1] (HIF-2a PANC, run 2), 21.6 µM; in assay [1] (HIF-2a, run 1) it was 8.21 µM; in assay [1] (HIF-2a, run 2), < 30 µM; in assay [2] (run 1), 20.3 µM. In addition, the IC50 in assay [2] (run 2) stood at 20.1 µM. For the same compound, the IC50 result in assay [2] (mean of runs) is “inactive”.
Turning to `COc1cc(N2C(=O)C=CC2=O)c(OC)cc1Cl`, in assay [1] (HIF-2a PANC, mean of runs), the IC50 entry was “inactive”. In addition, the IC50 in assay [1] (HIF-2a PANC, run 1) is 38.5 µM; in assay [1] (HIF-2a PANC, run 2) it was 45.2 µM; in assay [1] (HIF-2a, mean of runs), 8.55 µM; in assay [1] (HIF-2a, run 1), 8.69 µM; in assay [1] (HIF-2a, run 2), 8.4 µM; in assay [2] (mean of runs), 36.8 µM. Besides, the IC50 in assay [2] (run 1) worked out at 33.2 µM; in assay [2] (run 2), 40.4 µM.
For `COc1ccc(OCc2cccc(C(=O)O)c2)cc1`, the IC50 is > 99 µM in assay [1] (HIF-2a PANC, run 1); < 30 µM in assay [1] (HIF-2a PANC, run 2); 0.781 µM in assay [1] (HIF-2a, mean of runs); 0.76 µM in assay [1] (HIF-2a, run 1); 0.802 µM in assay [1] (HIF-2a, run 2); 26.3 µM in assay [2] (mean of runs). For the same compound, the values for the IC50 in assay [2] (run 1) and in assay [2] (run 2) were 19 µM and 33.7 µM, respectively.
For `COc1cc(/C=N/O)ccc1OCc1ccc(C(=O)O)cc1`, the IC50 in assay [1] (HIF-2a PANC, mean of runs) is > 99 µM (inactive); in assay [1] (HIF-2a PANC, run 1), > 99 µM; in assay [1] (HIF-2a PANC, run 2), > 99 µM; in assay [1] (HIF-2a, mean of runs) it was 4.29 µM; in assay [1] (HIF-2a, run 1) it was 5.58 µM; in assay [1] (HIF-2a, run 2) it was 3 µM. Also, the IC50 in assay [2] (run 1) and in assay [2] (run 2) was > 99 µM each time.
Turning to `CCOc1ccc(C(=O)Nc2cccc(C(=O)O)c2C)cc1Cl`, the IC50 in assay [1] (HIF-2a PANC, mean of runs) was 28.2 µM; in assay [1] (HIF-2a PANC, run 1) it was 25 µM; in assay [1] (HIF-2a PANC, run 2) it was 31.5 µM; in assay [1] (HIF-2a, run 1), 13.3 µM; in assay [1] (HIF-2a, run 2), 16.6 µM; in assay [2] (run 1) it was > 30 µM. In assay [2] (run 2), the IC50 was > 99 µM. Besides, the IC50 entry in assay [1] (HIF-2a, mean of runs) is “inactive”.
For `CCN(CC)S(=O)(=O)c1ccc(NC(=O)c2cccnc2Cl)c(NC(=O)c2cccnc2Cl)c1`, the IC50 was 9.99 µM in assay [1] (HIF-2a PANC, mean of runs); 12.9 µM in assay [1] (HIF-2a PANC, run 1); 7.07 µM in assay [1] (HIF-2a PANC, run 2); 10 µM in assay [1] (HIF-2a, mean of runs); 9.42 µM in assay [1] (HIF-2a, run 1); 10.6 µM in assay [1] (HIF-2a, run 2). Besides, the IC50 in assay [2] (run 1) amounted to 8.13 µM; in assay [2] (run 2), 16.9 µM. For the same compound, the IC50 entry in assay [2] (mean of runs) is “inactive”.
Consider `O=C(O)c1ccc(N/N=C/c2ccc(C(F)(F)F)cc2)cc1`, for which the IC50 entry in assay [1] (HIF-2a PANC, mean of runs) is “inactive”; in assay [2] (mean of runs) it was “inactive”. Moreover, the IC50 in assay [1] (HIF-2a PANC, run 1) is 75.9 µM; in assay [1] (HIF-2a PANC, run 2), 8.53 µM; in assay [1] (HIF-2a, mean of runs), 9.84 µM; in assay [1] (HIF-2a, run 1) it was 9.59 µM; in assay [1] (HIF-2a, run 2) it was 10.1 µM; in assay [2] (run 1), 22.5 µM. The compound also showed an IC50 in assay [2] (run 2) of 21.7 µM.
With `NNC(=O)COc1ccc(-c2nccc(-c3ccc(F)cc3)n2)cc1`, the IC50 was 2.37 µM in assay [1] (HIF-2a PANC, mean of runs); 2.39 µM in assay [1] (HIF-2a PANC, run 1); 2.34 µM in assay [1] (HIF-2a PANC, run 2); 2.66 µM in assay [1] (HIF-2a, mean of runs); 2.56 µM in assay [1] (HIF-2a, run 1); 2.75 µM in assay [1] (HIF-2a, run 2). For the same compound, the values for the IC50 in assay [2] (run 1) and in assay [2] (run 2) were 3.37 µM and 1.1 µM, respectively. The IC50 entry in assay [2] (mean of runs) is “inactive”.
`COC(=O)c1cccc(-c2noc(-c3ccccc3F)n2)c1`: the IC50 in assay [1] (HIF-2a PANC, mean of runs) was 9.77 µM; in assay [1] (HIF-2a PANC, run 1) it was 9.59 µM; in assay [1] (HIF-2a PANC, run 2), 9.94 µM; in assay [1] (HIF-2a, mean of runs), < 10 µM; in assay [1] (HIF-2a, run 1), < 10 µM; in assay [1] (HIF-2a, run 2), < 10 µM. Besides, the IC50 in assay [2] (run 1) and in assay [2] (run 2) was > 99 µM each time.
With `COC(=O)Cc1ccc(NC(=O)c2ccc(C(C)(C)C)cc2)cc1`, the IC50 in assay [1] (HIF-2a PANC, mean of runs) was < 1 µM (inactive); in assay [1] (HIF-2a PANC, run 1), < 1 µM; in assay [1] (HIF-2a PANC, run 2) it was < 3 µM; in assay [1] (HIF-2a, mean of runs), 0.243 µM; in assay [1] (HIF-2a, run 1), 0.246 µM; in assay [1] (HIF-2a, run 2), 0.241 µM. Further, the IC50 in assay [2] (mean of runs), in assay [2] (run 1) and in assay [2] (run 2) was < 10 µM each time.
Regarding `O=Cc1cn(Cc2cccc([N+](=O)[O-])c2)c2ccccc12`, the IC50 in assay [1] (HIF-2a PANC, mean of runs) was > 99 µM (inactive); in assay [1] (HIF-2a PANC, run 1) it was > 99 µM; in assay [1] (HIF-2a PANC, run 2) it was > 99 µM; in assay [1] (HIF-2a, mean of runs), 0.978 µM; in assay [1] (HIF-2a, run 1), 0.982 µM; in assay [1] (HIF-2a, run 2), 0.975 µM. Besides, the IC50 in assay [2] (run 1) and in assay [2] (run 2) was > 99 µM in each case.
